Experimental data reported in US11369565B2, “Amino-pyrimidine skeletal muscle modulators” (Cytokinetics, Inc., priority 2010, dated 2022).

tested on: rabbit skeletal myofibrils (approximately 90% fast fibers); test: Activation of fast skeletal myofibrils (PUMA coupled-enzyme ATPase assay at pCa25); assay type: biochemical; details: concentration at which the compound increased the enzymatic activity by 40%; calcium at pCa25; PM12 buffer pH 6.8
Method in brief: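 Detergent-washed rabbit psoas myofibrils tested at calcium giving 25% of maximal rate (pCa25). ATPase activity tracked by pyruvate kinase/lactate dehydrogenase coupling, NADH oxidation read as absorbance at 340 nm, in PM12 buffer (12 mM Pipes, 2 mM MgCl2, 1 mM DTT, pH 6.8).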

| SMILES | Mean AC1.4 |
| --- | --- |
| Oc1ccc(-c2cnc(NC[C@]3(c4ncccc4F)C[C@H](F)C3)nc2)cn1 [5-[2-({[3-fluoro-1-(3-fluoro(2-pyridyl))cyclobutyl]methyl}amino)pyrimidin-5-yl]pyridin-2-ol] | D (D=>20 uM) |
| Oc1ncc(-c2cnc(NC[C@]3(c4ncccc4F)C[C@H](F)C3)nc2)cn1 [5-[2-({[3-fluoro-1-(3-fluoro(2-pyridyl))cyclobutyl]methyl}amino)pyrimidin-5-yl]pyrimidin-2-ol] | D (D=>20 uM) |
| Nc1ccnn1C(=O)c1cnc(NCC2(c3ncccc3F)CCC2)nc1 [5-aminopyrazolyl 2-({[(3-fluoro(2-pyridyl))cyclobutyl]methyl}amino) pyrimidin-5-yl ketone] | C (C=10-20 uM) |
| Oc1cnc(-c2cnc(NC[C@]3(c4ncccc4F)C[C@H](F)C3)nc2)c(F)c1 [5-fluoro-6-[2-(([3-fluoro-1-(3-fluoro(2-pyridyl))cyclobutyl]methyl}amino)pyrimidin-5-yl]pyridin-3-ol] | B (B=1-10 uM) |
| Oc1ncc(-c2cnc(N3CC4(c5ncccc5F)CC3C4)nc2)cn1 [5-{2-[4-(3-fluoro-2-pyridyl)-2-azabicyclo[2.1.1]hex-2-yl]pyrimidin-5-yl}pyrimidin-2-ol] | D (D=>20 uM) |
| CC(C)(Nc1ncc(-c2cnc3c(c2)NC(=O)C3)cn1)c1ncccc1Cl [6-(2-{[1-(3-chloro(2-pyridyl))-isopropyl]amino}pyrimidin-5-yl)-2-pyrrolino[3,2-b]pyridin-2-one] | D (D=>20 uM) |
| CC(C)(Nc1ncc(-c2cccc(C(N)=O)n2)cn1)c1ncccc1Cl [6-(2-{[1-(3-chloro(2-pyridyl))-isopropyl]amino}pyrimidin-5-yl)pyridine-2-carboxamide] | C (C=10-20 uM) |
| CC(C)(Nc1ncc(-c2cc(C(N)=O)ncn2)cn1)c1ncccc1Cl [6-(2-{[1-(3-chloro(2-pyridyl))-isopropyl]amino}pyrimidin-5-yl)pyrimidine-4-carboxamide] | B (B=1-10 uM) |
| CC(C)(Nc1ncc(-c2cn3cc(C(N)=O)sc3n2)cn1)c1ncccc1Cl [6-(2-{[1-(3-chloro(2-pyridyl))-isopropyl}amino}pyrimidin-5-yl) imidazo[2,1-b]1,3-thiazoline-2-carboxamide] | D (D=>20 uM) |
| O=c1cc(-c2cnc(NC[C@]3(c4ncccc4F)C[C@H](F)C3)nc2)[nH]c(=O)[nH]1 [6-[2-({[3-fluoro-1-(3-fluoro(2-pyridyl))cyclobutyl]methyl}amino)pyrimidin-5-yl]-1,3-dihydropyrimidine-2,4-dione] | B (B=1-10 uM) |
| Oc1ccc(-c2cnc(NC[C@]3(c4ncccc4F)C[C@H](F)C3)nc2)nn1 [6-[2-({[3-fluoro-1-(3-fluoro(2-pyridyl))cyclobutyl]methyl}amino)pyrimidin-5-yl]pyridazin-3-ol] | D (D=>20 uM) |
| Oc1ccc(-c2cnc(NC[C@]3(c4ncccc4F)C[C@H](F)C3)nc2)nc1 [6-[2-({[3-fluoro-1-(3-fluoro(2-pyridyl))cyclobutyl]methyl}amino)pyrimidin-5-yl]pyridin-3-ol] | B (B=1-10 uM) |
| CC(=O)N1CCc2nc(NCC(C)(C)c3ccc(F)cc3)ncc2C1 [6-acetyl-2-{[2-(4-fluorophenyl)-2-methylpropyl]amino}-5,6,7,8-tetrahydropyridino[4,3-d]pyrimidine] | D (D=>20 uM) |
| N#Cc1n[nH]c2cc(F)c(-c3cnc(NC4(c5ncccc5F)CCC4)nc3)cc12 [6-fluoro-5-(2-{[(3-fluoro(2-pyridyl))cyclobutyl]amino}pyrimidin-5-yl)-1H-indazole-3-carbonitrile] | B (B=1-10 uM) |
| NC(=O)c1n[nH]c2cc(F)c(-c3cnc(NC4(c5ncccc5F)CCC4)nc3)cc12 [6-fluoro-5-(2-{[(3-fluoro(2-pyridyl))cyclobutyl]amino}pyrimidin-5-yl)-1H-indazole-3-carboxamide] | A (A=<1 uM) |
| O=C1Cc2cccc(-c3cnc(NC[C@]4(c5ncccc5F)C[C@H](F)C4)nc3)c2N1 [7-[2-({[3-fluoro-1-(3-fluoro(2-pyridyl))cyclobutyl)]methyl}amino) pyrimidin-5-yl]indolin-2-one] | B (B=1-10 uM) |
| O=C1NCc2cccc(-c3cnc(NC[C@]4(c5ncccc5F)C[C@H](F)C4)nc3)c21 [7-[2-({[3-fluoro-1-(3-fluoro(2-pyridyl))cyclobutyl]methyl}amino)pyrimidin-5-yl]isoindolin-1-one] | B (B=1-10 uM) |
| Nc1nc(NC[C@]2(c3ncccc3F)C[C@H](F)C2)ncc1-c1ccccc1 [(4-amino-5-phenylpyrimidin-2-yl){[3-fluoro-1-(3-fluoro(2-pyridyl))cyclobutyl)]methyl} amine] | B (B=1-10 uM) |
| CC(C)(Nc1ncc(-c2ccc3[nH]ncc3c2)cn1)c1ncccc1Cl [(5-(1H-indazol-5-yl)]pyrimidin-2-yl)[1-(3-chloro(2-pyridyl))-isopropyl]amine] | A (A=<1 uM) |
| Fc1cccnc1C1(Nc2ncc(-c3ccc4[nH]ncc4c3)cn2)CCC1 [(5-(1H-indazol-5-yl)pyrimidin-2-yl)[(3-fluoro(2-pyridyl))cyclobutyl]amine] | B (B=1-10 uM) |
| CC(C)(Nc1ncc(C2N=NN=N2)cn1)c1ncccc1Cl [(5-(5H-1,2,3,4-tetraazol-5-yl)pyrimidin-2-yl)[1-(3-chloro(2-pyridyl))-isopropyl]amine] | D (D=>20 uM) |
| CC(C)(Nc1ncc(Br)cn1)c1ncccc1F [(5-bromopyrimidin-2-yl)[1-(3-fluoro(2-pyridyl))-isopropyl]amine] | D (D=>20 uM) |
| CC(C)(Nc1ncc(Br)cn1)c1ccc(F)cc1 [(5-bromopyrimidin-2-yl)[1-(4-fluorophenyl)-isopropyl]amine] | C (C=10-20 uM) |
| Fc1cccnc1C1(Nc2ncc(Br)cn2)CCC1 [(5-bromopyrimidin-2-yl)[(3-fluoro(2-pyridyl))cyclobutyl]amine] | D (D=>20 uM) |
| Fc1ccc(C2(Nc3ncc(Br)cn3)CCC2)cc1 [(5-bromopyrimidin-2-yl)[(4-fluorophenyl)cyclobutyl]amine] | D (D=>20 uM) |
| Fc1cccnc1C1(Nc2ncc3cc(Br)ccc3n2)CCC1 [(6-bromoquinazolin-2-yl)[(3-fluoro(2-pyridyl))cyclobutyl]amine] | D (D=>20 uM) |
| Cc1cc(NC2CCCCC2)nc(N[C@H](C)c2ccccc2)n1 [((1R)-1-phenylethyl)[4-(cyclohexylamino)-6-methylpyrimidin-2-yl]amine] | B (B=1-10 uM) |
| CC(C)(Nc1ncc(-c2ncc(CNC(=O)[C@H]3CCCN3)s2)cn1)c1ncccc1F [((2R)pyrrolidin1-2-yl)-N-{[2-(2-{[1-(3-fluoro(2-pyridyl))-isopropyl]amino}pyrimidin-5-yl)(1,3-thiazol-5-yl)]methyl}carboxamide] | D (D=>20 uM) |
| CC(C)(Nc1ncc(-c2nc(CNC(=O)[C@H]3CCCN3)cs2)cn1)c1ncccc1F [((2R)pyrrolidin-2-yl)-N-{[2-(2-{[1-(3-fluoro(2-pyridyl))-isopropyl]amino}pyrimidin-5-yl)(1,3-thiazo-4-yl)]methyl}carboxamide] | D (D=>20 uM) |
| CC(C)(Nc1ncc(-c2nc(CNC(=O)[C@@H]3CCCN3)cs2)cn1)c1ncccc1F [((2S)pyrrolidin-2-yl)-N-{[2-(2-{[1-(3-fluoro(2-pyridyl))-isopropyl]amino}pyrimidin-5-yl)(1,3-thiazol-4-yl)]methyl}carboxamide] | D (D=>20 uM) |
